The values that follow come from PubChem BioAssay (NCI).

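Cultured in 96-well plates, cells were exposed to test compound for 48 hours across five concentrations. Definition used: TGI = concentration required for complete inhibition of growth.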

Holding throughout (experiment): NCI-60 cell line screen, 48 h
For assay [1], the system named is MALME-3M melanoma.
For assay [2], the system named is HCC-2998 colon.
The subject of assay [3] is SN12C renal.
Assay [4] relates to HCT-116 colon.
The test system of assay [5] is HL-60(TB) leukemia.
For assay [6], the system named is SR leukemia.
Assay [7] has as its system LOX IMVI melanoma.
Assay [8] deals with MDA-MB-435.
The test system of assay [9] is CCRF-CEM leukemia.
Assay [10] deals with HOP-92 NSCLC.
The test system of assay [11] is NCI-H460 lung.
Assay [12] has as its system MOLT-4 leukemia.
For assay [13], the system named is PC-3 prostate.
In assay [14] the test system is SK-OV-3 ovarian.
Assay [15] relates to A498 renal.
Assay [16] concerns TK-10 renal.
The subject of assay [17] is U251 CNS.
The test system of assay [18] is COLO 205 colon.
Assay [19] relates to OVCAR-3 ovarian.

In the case of `COCn1c2ccc(OC(C)=O)cc2c2c(=O)oc(N(C)C)nc21`, the TGI in assay [1], in assay [2], in assay [3], in assay [4], in assay [5] and in assay [6] was > 100 µM throughout. For the same compound, the TGI in assay [7], in assay [8], in assay [9], in assay [10], in [11] and in [12] was > 100 µM in each case. Besides, the TGI in [13], in assay [14], in assay [15], in assay [16], in [17] and in assay [18] was > 100 µM throughout.
With `CN(/N=C(\C(=O)O)c1ccccc1)C1=NCCCN1`, the TGI in [1], in assay [2], in assay [3], in [19], in assay [4] and in [5] was > 100 µM in each case. For the same compound, the TGI in assay [6], in assay [7], in [8], in assay [9], in assay [10] and in assay [11] was > 100 µM throughout. Moreover, the TGI in assay [12], in assay [13], in assay [14], in assay [15], in [16] and in [17] was > 100 µM each time. The TGI in assay [18] was > 100 µM.
Consider `CN(C(=O)Cc1cc(Cl)c(Cl)cc1N=C=S)[C@H]1CCCC[C@@H]1N1CCCC1`, for which the TGI in [1] was determined as 31.8 µM; in assay [3] it was 30.3 µM; in [19] it was 29.6 µM; in assay [4], 21.7 µM; in [5], 23.8 µM; in [6] it was 3.49 µM. For the same compound, the TGI in [7] is 13.3 µM; in assay [8] it was 17 µM; in assay [9], 7.32 µM; in assay [10], 21.9 µM; in assay [11] it was 22 µM; in assay [12], 14.2 µM. Further, the TGI in assay [13] was found to be 26.3 µM; in assay [14] it was 32.3 µM; in assay [15] it was 27 µM; in [16], 23.5 µM; in assay [17], 28.2 µM; in assay [18], 26.8 µM.
For the compound `COC(=O)c1ccc2c(O)c(O)ccc2c1`, the TGI came out at 24.2 µM in assay [1]; 29.6 µM in [2]; 23 µM in assay [3]; 17 µM in [19]; 32 µM in [4]; 5.06 µM in assay [5]. The TGI is 7.06 µM in assay [6]; 11.5 µM in assay [7]; 3.3 µM in [8]; > 27 µM in [9]; 33.6 µM in [10]; 39.3 µM in assay [11]. For the same compound, the TGI in assay [12] amounted to 13.7 µM; in assay [13], 12.5 µM; in assay [14], 38.7 µM; in assay [15], 47.7 µM; in assay [16], 36.2 µM; in [17], 27.5 µM. This compound yielded a TGI in [18] of 26.7 µM.
Take `COc1c2c(cc3oc(C)cc(=O)c13)OC(=N)C(C(N)=O)C2CC(=O)c1ccc(N)cc1` (configuration not stated): the TGI in assay [1], in assay [2], in assay [3], in assay [19], in assay [4] and in [5] was > 100 µM throughout. The TGI in assay [6], in assay [7], in [8], in [9], in assay [10] and in assay [11] was > 100 µM in each case. Further, the TGI in assay [12], in [13], in assay [15], in [16], in assay [17] and in assay [18] was > 100 µM throughout.
Turning to `O=C(NCc1cccnc1)NCc1cccnc1`, the TGI in assay [1], in assay [2], in assay [3], in assay [19], in [4] and in [5] was > 100 µM throughout. Also, the TGI in assay [6], in assay [7], in assay [8], in assay [10], in [11] and in assay [13] was > 100 µM throughout. For the same compound, the TGI in assay [14], in assay [15], in [16], in assay [17] and in [18] was > 100 µM each time.
In the case of `Fc1ccc2nc3n(c2c1)C(c1c(F)cccc1F)SC3` (configuration not stated), the TGI is > 100 µM in [1]; > 100 µM in assay [2]; > 100 µM in assay [3]; > 100 µM in assay [19]; > 100 µM in assay [4]; 53 µM in assay [5]. Also, the TGI in [6] was 76.2 µM; in assay [7] it was > 100 µM; in assay [8], > 100 µM; in assay [10], > 100 µM; in [11] it was > 100 µM; in assay [12] it was > 100 µM. The TGI in assay [13], in assay [14], in [15], in assay [16], in [17] and in assay [18] was > 100 µM throughout.
